Results taken from publication PMC9133015 (Nature Communications, 2022).
Several values for one entry are separate records, joined by “and”; a condition that tells them apart may be missing. Equal entries are not always repeated.

Key:
DU145 cells [1] = assay: Anti-proliferation activity assay (CCK8, 72 h); type: cell-based, human; settings: DU145, replicates
PC-3 cells [2] = assay: Anti-proliferation activity assay (CCK8, 72 h); type: cell-based, human; settings: PC-3, replicates
22Rv1 cells [3] = assay: Anti-proliferation activity assay (CCK8, 72 h); type: cell-based, human; settings: 22Rv1, replicates
RWPE-1 cells = assay: Anti-proliferation activity assay (CCK8, 72 h); type: cell-based; settings: RWPE1, replicates
PC-3 cells [4] = assay: Cell growth assay (5-day course); type: cell-based, human; settings: PC-3, 40 µM, replicates
22Rv1 cells [5] = assay: Colony formation assay; type: cell-based, human; settings: 22Rv1, 20 μM, replicates
DU145 cells [6] = assay: Colony formation assay; type: cell-based, human; settings: DU145, 40 μM, replicates
PC-3 cells [7] = assay: Colony formation assay; type: cell-based, human; settings: 40 µM, replicates
22Rv1 cells [8] = assay: Migration assay (transwell); type: cell-based, human; settings: 22Rv1, 20 μM, replicates
DU145 cells [9] = assay: Migration assay (transwell); type: cell-based, human; settings: DU145, 40 μM, replicates
PC-3 cells [10] = assay: Migration assay (transwell); type: cell-based, human; settings: PC-3; 40 µM; replicates
DU145 cells [11] = assay: Invasion assay (transwell); type: cell-based, human; settings: DU145, 40 μM, replicates
PC-3 cells [12] = assay: Invasion assay (transwell); type: cell-based, human; settings: PC-3; 40 µM; replicates
22Rv1 cells [13] = assay: Invasion assay (transwell); type: cell-based, human; settings: 22Rv1, 20 μM, replicates
22Rv1 cells [14] = assay: Apoptosis assay (Annexin V-APC/PI flow cytometry); type: cell-based, human; settings: 22Rv1, 20 μM, replicates
DU145 cells [15] = assay: Apoptosis assay (Annexin V-APC/PI flow cytometry); type: cell-based, human; settings: DU145, 40 μM, replicates
PC-3 cells [16] = assay: Apoptosis assay (Annexin V-APC/PI flow cytometry); type: cell-based, human; settings: PC-3; 40 µM; replicates
22Rv1 cells [17] = assay: Cell cycle assay (PI flow cytometry); type: cell-based, human; settings: 22Rv1, 20 μM, replicates
DU145 cells [18] = assay: Cell cycle assay (PI flow cytometry); type: cell-based, human; settings: DU145, 40 μM, replicates
PC-3 cells [19] = assay: Cell cycle assay (PI flow cytometry); type: cell-based, human; settings: PC-3, 40 µM, replicates
DU145 xenograft [20] = assay: In vivo antitumor activity, DU145 xenograft mouse model; set-up: species or system BALB/c nude mice; settings: for Tumor volume (Fig. 7a): individual mice 1-10, in cm³ (unit assumed)
DU145 xenograft [21] = assay: H&E and Ki67 staining of xenograft tumor tissues; type: in vivo, BALB/c nude mice; settings: DU145, reference drug groups, replicates

In the case of `CNC(=O)c1ccc(N2C(=S)N(c3ccc(C#N)c(C(F)(F)F)c3)C(=O)C2(C)C)cc1F` [enzalutamide], the optical density (DU145 cells [1]; 2.5 uM) was 1.167 and 1.145 and 1.124, the optical density (DU145 cells [1]; 5 uM) was 1.127 and 1.118 and 1.073 and the optical density (DU145 cells [1]; 10 uM) was 1.073 and 1.05 and 1.035. The optical density (DU145 cells [1]; 20 uM) was 0.93 and 0.926 and 0.882, the optical density (DU145 cells [1]; 40 uM) was 0.602 and 0.626 and 0.546 and the optical density (DU145 cells [1]; 80 uM) was 0.325 and 0.374 and 0.256. The optical density (PC-3 cells [2]; 2.5 uM) was 1.074 and 1.037 and 1.019, the optical density (PC-3 cells [2]; 5 uM) was 1.05 and 1.004 and 0.976 and the optical density (PC-3 cells [2]; 10 uM) was 1.021 and 0.964 and 0.924. For the same molecule, the optical density (PC-3 cells [2]; 20 uM) was 0.935 and 0.906 and 0.894, the optical density (PC-3 cells [2]; 40 uM) was 0.769 and 0.721 and 0.688 and the optical density (PC-3 cells [2]; 80 uM) was 0.516 and 0.456 and 0.403. The optical density (22Rv1 cells [3]; 2.5 uM) was 0.81 and 0.838 and 0.791, the optical density (22Rv1 cells [3]; 5 uM) was 0.775 and 0.808 and 0.759 and the optical density (22Rv1 cells [3]; 10 uM) was 0.619 and 0.678 and 0.623. The optical density (22Rv1 cells [3]; 20 uM) was 0.455 and 0.528 and 0.472, the optical density (22Rv1 cells [3]; 40 uM) was 0.22 and 0.347 and 0.272 and the optical density (22Rv1 cells [3]; 80 uM) was 0.191. For the same molecule, the optical density (RWPE-1 cells; 2.5 uM) was 0.992 and 1.025 and 0.996, the optical density (RWPE-1 cells; 5 uM) was 0.949 and 0.989 and 0.956 and the optical density (RWPE-1 cells; 10 uM) was 0.858 and 0.962 and 0.898. For the same molecule, the optical density (RWPE-1 cells; 20 uM) was 0.786 and 0.838 and 0.802, the optical density (RWPE-1 cells; 40 uM) was 0.517 and 0.686 and 0.593 and the optical density (RWPE-1 cells; 80 uM) was 0.393 and 0.433 and 0.408. The optical density (PC-3 cells [4]; day 0) was 0.269, the optical density (PC-3 cells [4]; day 1) was 0.288 and 0.29 and 0.285 and the optical density (PC-3 cells [4]; day 2) was 0.517 and 0.519 and 0.473. For the same molecule, the optical density (PC-3 cells [4]; day 3) was 0.701 and 0.705 and 0.6, the optical density (PC-3 cells [4]; day 4) was 1.438 and 1.323 and 1.218 and the “Colony formation (cell number)” value (22Rv1 cells [5]) was 560 cell number and 530 cell number and 570 cell number. The “Colony formation (cell number)” value (DU145 cells [6]) was 205 cell number and 218 cell number and 226 cell number, the “Colony formation (cell number)” value (PC-3 cells [7]) was 160 cell number and 145 cell number and the “Cell migration (cell number)” value (22Rv1 cells [8]) was 1459 cell number and 1378 cell number and 1390 cell number. The “Cell migration (cell number)” value (DU145 cells [9]) was 4002 cell number and 3988 cell number and 4105 cell number, the “Cell migration (cell number)” value (PC-3 cells [10]) was 1100 cell number and 1076 cell number and 923 cell number and the “Cell invasion (cell number)” value (DU145 cells [11]) was 1897 cell number and 1923 cell number and 1867 cell number. The “Cell invasion (cell number)” value (PC-3 cells [12]) was 2300 cell number and 2405 cell number and 2379 cell number, the “Cell invasion (cell number)” value (22Rv1 cells [13]) was 1680 cell number and 1543 cell number and the “Apoptosis (%)” value (22Rv1 cells [14]) was 4.36% and 5.45% and 6.23%. The “Apoptosis (%)” value (DU145 cells [15]) was 11.89% and 10.52% and 9.68%, the “Apoptosis (%)” value (PC-3 cells [16]) was 5.39% and 5.46% and 5.82% and the “Cell cycle percentages ( % ) G0/G1” value (22Rv1 cells [17]) was 69.98% and 71.27% and 73.69%. The “Cell cycle percentages ( % ) G2/M” value (22Rv1 cells [17]) was 14.06% and 12.61% and 11.06%, the “Cell cycle percentages ( % ) S” value (22Rv1 cells [17]) was 15.96% and 16.12% and 15.25% and the “Cell cycle percentages ( % ) G0/G1” value (DU145 cells [18]) was 57.27% and 58.94% and 59.05%. The “Cell cycle percentages ( % ) G2/M” value (DU145 cells [18]) was 23.68% and 22.3% and 24.16%, the “Cell cycle percentages ( % ) S” value (DU145 cells [18]) was 19.05% and 18.76% and 16.79% and the “Cell cycle percentages ( % ) G0/G1” value (PC-3 cells [19]; G0/G1) was 70.26% and 71.93% and 73.13%. The “Cell cycle percentages ( % ) G2/M” value (PC-3 cells [19]; G2/M) was 18.02% and 17.63% and 16.26%, the “Cell cycle percentages ( % ) S” value (PC-3 cells [19]; S) was 11.72% and 10.44% and 10.61% and the “antitumor activity (in words)” value (DU145 xenograft [20]; DU145 xenograft, 100 mg/kg orally once a day, seven weeks) was “only delayed the tumor growth”. The “Tumor volume (Fig. 7a)” value (DU145 xenograft [20]; Day 1) was 0.06831 and 0.0728 and 0.08842 and 0.07149 and 0.08267 and 0.0792 and 0.07365 and 0.09986 and 0.09475 and 0.08367, the “Tumor volume (Fig. 7a)” value (DU145 xenograft [20]; Day 3) was 0.1054 and 0.1066 and 0.1367 and 0.1112 and 0.1273 and 0.1097 and 0.1065 and 0.1474 and 0.1553 and 0.1239 and the “Tumor volume (Fig. 7a)” value (DU145 xenograft [20]; Day 5) was 0.1354 and 0.1343 and 0.1923 and 0.144 and 0.1749 and 0.1417 and 0.1334 and 0.2305 and 0.2202 and 0.1878. The “Tumor volume (Fig. 7a)” value (DU145 xenograft [20]; Day 7) was 0.1816 and 0.1822 and 0.2496 and 0.1945 and 0.234 and 0.2013 and 0.2322 and 0.3186 and 0.2993 and 0.2348, the “Tumor volume (Fig. 7a)” value (DU145 xenograft [20]; Day 9) was 0.236 and 0.2398 and 0.2946 and 0.2457 and 0.337 and 0.2675 and 0.2935 and 0.3821 and 0.38 and 0.3125 and the “Tumor volume (Fig. 7a)” value (DU145 xenograft [20]; Day 11) was 0.2749 and 0.3065 and 0.4056 and 0.2756 and 0.3984 and 0.3105 and 0.3205 and 0.5039 and 0.4644 and 0.382. For the same molecule, the “Tumor volume (Fig. 7a)” value (DU145 xenograft [20]; Day 13) was 0.3292 and 0.3636 and 0.3775 and 0.3177 and 0.4798 and 0.3714 and 0.3893 and 0.5706 and 0.5218 and 0.4116, the “Tumor volume (Fig. 7a)” value (DU145 xenograft [20]; Day 15) was 0.4104 and 0.4397 and 0.4958 and 0.3678 and 0.5629 and 0.4479 and 0.4493 and 0.6357 and 0.6164 and 0.4936 and the “Tumor volume (Fig. 7a)” value (DU145 xenograft [20]; Day 17) was 0.473 and 0.4645 and 0.5899 and 0.4301 and 0.6355 and 0.511 and 0.4922 and 0.7115 and 0.6607 and 0.5477. The “Tumor volume (Fig. 7a)” value (DU145 xenograft [20]; Day 19) was 0.458 and 0.4883 and 0.6303 and 0.4489 and 0.6566 and 0.5391 and 0.5247 and 0.7614 and 0.6322 and 0.6372, the “Tumor weight (Fig. 7c)” value (DU145 xenograft [20]; reference drug groups, individual mice, in g (unit assumed)) was 1.15 and 1.34 and 1.28 and 1.42 and 1.33 and 1.5 and 1.37 and 1.08 and 1.22 and 1.16 and the “Positive rate ( % ) (Fig. 7f)” value (DU145 xenograft [21]) was 30.71% and 31.3% and 29.1%.
